Experimental data: US20110092448A1, “Peptide Conjugate for Oral Delivery of Hydrophilic Peptide Analgesics” (METABOLIC PHARMACEUTICALS LIMITED, priority 2005, published 2011)
Read-outs that look alike come from different tables or passages of the source.

Assays:
[1] = system: neuronal nicotinic acetylcholine receptor; assay type: cell-based, bovine
[2] = system: chronic neuropathy (CCI) in Sprague-Dawley rats; settings: rat, in vivo
[3] = rat, in vivo
[4] = system: STZ diabetic Sprague-Dawley rats with neuropathic pain; settings: rat, in vivo

Compound | catecholamine release in response to nicotine [1] | analgesic effect (relieving pain) [2] | analgesic effect (relieving pain) ([2]; po) | analgesic effect (relieving pain) ([2]; sc) | oral availability compared with subcutaneous (plasma concentrations) [3] | analgesic effect vs vehicle group ([2]; 2 mg/kg) | withdrawal threshold after one hour ([2]; 2 mg/kg) | relative oral availability [4] | minimum dose for maximal activity ([4]; po) | oral absorption (time profile of effect) ([4]; po) | minimum dose for maximal activity ([4]; sc)
CC[C@H](C)[C@@H]1NC(=O)[C@H](CCC(=O)O)NC(=O)[C@@H]2CCCN2C(=O)[C@H](Cc2cnc[nH]2)NC(=O)[C@H](CC(=O)O)NC(=O)[C@H](Cc2ccc(O)cc2)NC(=O)[C@H](CC(N)=O)NC(=O)[C@@H]2CSSC[C@H](NC(=O)CN)C(=O)N[C@@H](CSSC[C@@H](C(N)=O)NC1=O)C(=O)N[C@@H](CO)C(=O)N[C@@H](CC(=O)O)C(=O)N1CCC[C@H]1C(=O)N[C@@H](CCCNC(=N)N)C(=O)N2 [ACV1, Gly-Cys-Cys-Ser-Asp-Pro-Arg-Cys-Asn-Tyr-Asp-His-Pro-Glu-Ile-Cys-NH2] | decreased catecholamine release | not effective | not effective | effective | 1-2% | – | – | – | – | – | –
Ac-Tyr-Leu-Arg-Ile-Val-Gly-Cys-Cys-Ser-Asp-Pro-Arg-Cys-Asn-Tyr-Asp-His-Pro-Glu-Ile-Cys-NH2 (Ac-YLRIVGCCSDPRCNYDHPEIC-NH2; cysteine pairing not given here) [ACV3] | decreased catecholamine release | – | – | – | – | significant difference | increase in withdrawal threshold | 30-70% | ~0.3 mg/kg | rapid | ~0.3 mg/kg
